Results from PubChem BioAssay (NCI).
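48-hour exposure; five concentrations; linearly interpolated endpoints. TGI is the concentration that stops growth completely.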

Key:
Test in all cases: NCI-60 cell line screen, 48 h
[1] = test system: OVCAR-8 ovarian
[2] = test system: SW-620 colon
[3] = test system: K-562 leukemia
[4] = test system: COLO 205 colon
[5] = test system: MOLT-4 leukemia
[6] = test system: SN12C renal
[7] = test system: SNB-75 CNS
[8] = test system: LXFL 529 NSCLC
[9] = test system: OVCAR-4 ovarian
[10] = test system: NCI-H460 lung
[11] = test system: M14 melanoma
[12] = test system: XF 498 CNS
[13] = test system: A549 NSCLC
[14] = test system: IGROV1 ovarian
[15] = test system: HOP-18 NSCLC
[16] = test system: M19-MEL melanoma
[17] = test system: RXF 393 renal
[18] = test system: U251 CNS
[19] = test system: SK-OV-3 ovarian
[20] = test system: KM12 colon
[21] = test system: TK-10 renal
[22] = test system: DMS 114 small cell lung
[23] = test system: SK-MEL-28 melanoma
[24] = test system: KM20L2 colon
[25] = test system: SNB-19 CNS
[26] = test system: MALME-3M melanoma
[27] = test system: NCI-H522 lung
[28] = test system: DMS 273 small cell lung
[29] = test system: ACHN renal
[30] = test system: OVCAR-3 ovarian
[31] = test system: SK-MEL-5 melanoma
[32] = test system: HT29 colon
[33] = test system: HCT-15 colon
[34] = test system: LOX IMVI melanoma
[35] = test system: NCI-H226 lung
[36] = test system: UACC-257 melanoma
[37] = test system: HOP-92 NSCLC
[38] = test system: 786-0 renal
[39] = test system: HL-60(TB) leukemia
[40] = test system: UO-31 renal
[41] = test system: A498 renal
[42] = test system: OVCAR-5 ovarian
[43] = test system: SF-295 CNS
[44] = test system: EKVX NSCLC
[45] = test system: SF-539 CNS
[46] = test system: SF-268 CNS
[47] = test system: UACC-62 melanoma
[48] = test system: RPMI-8226 leukemia
[49] = test system: RXF-631 renal
[50] = test system: CAKI-1 renal
[51] = test system: SK-MEL-2 melanoma
[52] = test system: HOP-62 NSCLC
[53] = test system: NCI-H23 lung
[54] = test system: CCRF-CEM leukemia
[55] = test system: HCC-2998 colon
[56] = test system: HCT-116 colon
[57] = test system: SR leukemia
[58] = test system: SNB-78 CNS
[59] = test system: DLD-1 colon

Compound: C=CCN(N=O)C(=O)NCCCC(NC(C)=O)C(=O)NCc1ccccc1 (configuration not stated)
- TGI [1]: > 100 µM
- TGI [2]: > 100 µM
- TGI [3]: > 100 µM
- TGI [4]: > 100 µM
- TGI [5]: > 100 µM
- TGI [6]: > 100 µM
- TGI [7]: > 100 µM
- TGI [8]: > 100 µM
- TGI [9]: > 100 µM
- TGI [10]: > 100 µM
- TGI [11]: > 100 µM
- TGI [12]: > 100 µM
- TGI [13]: > 100 µM
- TGI [14]: > 100 µM
- TGI [15]: > 100 µM
- TGI [16]: > 100 µM
- TGI [17]: > 100 µM
- TGI [18]: > 100 µM
- TGI [19]: > 100 µM
- TGI [20]: > 100 µM
- TGI [21]: > 100 µM
- TGI [22]: > 100 µM
- TGI [23]: > 100 µM
- TGI [24]: > 100 µM
- TGI [25]: > 100 µM
- TGI [26]: > 100 µM
- TGI [27]: > 100 µM
- TGI [28]: > 100 µM
- TGI [29]: > 100 µM
- TGI [30]: > 100 µM
- TGI [31]: > 100 µM
- TGI [32]: > 100 µM
- TGI [33]: > 100 µM
- TGI [34]: > 100 µM
- TGI [35]: > 100 µM
- TGI [36]: > 100 µM
- TGI [37]: > 100 µM
- TGI [38]: > 100 µM
- TGI [39]: > 100 µM
- TGI [40]: > 100 µM
- TGI [41]: > 100 µM
- TGI [42]: > 100 µM
- TGI [43]: > 100 µM
- TGI [44]: > 100 µM
- TGI [45]: > 100 µM
- TGI [46]: > 100 µM
- TGI [47]: > 100 µM
- TGI [48]: > 100 µM
- TGI [49]: > 100 µM
- TGI [50]: > 100 µM
- TGI [51]: > 100 µM
- TGI [52]: > 100 µM
- TGI [53]: > 100 µM
- TGI [54]: > 100 µM

Compound: CCOC(=O)/C(=C/c1ccc(C(F)(F)F)cc1)N(CC)CC
- TGI [1]: > 100 µM
- TGI [2]: > 100 µM
- TGI [3]: > 100 µM
- TGI [4]: > 100 µM
- TGI [5]: > 100 µM
- TGI [6]: > 100 µM
- TGI [7]: > 100 µM
- TGI [8]: > 100 µM
- TGI [9]: > 100 µM
- TGI [10]: > 100 µM
- TGI [11]: > 100 µM
- TGI [12]: > 100 µM
- TGI [13]: > 100 µM
- TGI [14]: > 100 µM
- TGI [15]: > 100 µM
- TGI [18]: > 100 µM
- TGI [19]: > 100 µM
- TGI [55]: > 100 µM
- TGI [20]: > 100 µM
- TGI [21]: > 100 µM
- TGI [22]: > 100 µM
- TGI [23]: > 100 µM
- TGI [56]: > 100 µM
- TGI [26]: > 100 µM
- TGI [27]: > 100 µM
- TGI [29]: > 100 µM
- TGI [31]: > 100 µM
- TGI [32]: > 100 µM
- TGI [33]: > 100 µM
- TGI [34]: > 100 µM
- TGI [35]: > 100 µM
- TGI [57]: > 100 µM
- TGI [36]: > 100 µM
- TGI [37]: > 100 µM
- TGI [38]: > 100 µM
- TGI [39]: > 100 µM
- TGI [40]: > 100 µM
- TGI [41]: > 100 µM
- TGI [42]: > 100 µM
- TGI [43]: > 100 µM
- TGI [44]: > 100 µM
- TGI [45]: > 100 µM
- TGI [46]: > 100 µM
- TGI [47]: > 100 µM
- TGI [48]: > 100 µM
- TGI [49]: > 100 µM
- TGI [58]: > 100 µM
- TGI [59]: > 100 µM
- TGI [50]: > 100 µM
- TGI [51]: > 100 µM
- TGI [52]: > 100 µM
- TGI [53]: > 100 µM
- TGI [54]: > 100 µM

Compound: O=c1oc2c3ccc4ccccc4c3n(CCCN3CCCCC3)c2c2ccccc12
- TGI [1]: > 100 µM
- TGI [2]: > 100 µM
- TGI [3]: 63.9 µM
- TGI [4]: > 100 µM
- TGI [5]: > 100 µM
- TGI [7]: > 100 µM
- TGI [8]: > 100 µM
- TGI [9]: > 100 µM
- TGI [10]: > 100 µM
- TGI [11]: 24.2 µM
- TGI [12]: > 100 µM
- TGI [13]: > 100 µM
- TGI [14]: > 100 µM
- TGI [15]: > 100 µM
- TGI [16]: > 100 µM
- TGI [19]: > 100 µM
- TGI [55]: > 100 µM
- TGI [20]: > 100 µM
- TGI [21]: > 100 µM
- TGI [22]: > 100 µM
- TGI [23]: 50.3 µM
- TGI [24]: > 100 µM
- TGI [56]: > 100 µM
- TGI [25]: > 100 µM
- TGI [26]: 41 µM
- TGI [27]: > 100 µM
- TGI [29]: > 100 µM
- TGI [30]: > 100 µM
- TGI [32]: > 100 µM
- TGI [33]: > 100 µM
- TGI [34]: > 100 µM
- TGI [57]: > 100 µM
- TGI [36]: > 100 µM
- TGI [37]: > 100 µM
- TGI [38]: 37.2 µM
- TGI [39]: 42.9 µM
- TGI [40]: > 100 µM
- TGI [42]: > 100 µM
- TGI [43]: > 100 µM
- TGI [44]: > 100 µM
- TGI [45]: 40.8 µM
- TGI [46]: > 100 µM
- TGI [47]: > 100 µM
- TGI [48]: > 100 µM
- TGI [49]: > 100 µM
- TGI [59]: > 100 µM
- TGI [50]: > 100 µM
- TGI [51]: > 100 µM
- TGI [52]: > 100 µM
- TGI [54]: > 100 µM
